# The source made the active and inactive calls. The calls are words filed in the database; no cut-off is given here.
# Legend:
# [1] = molecular target: Dual specificity tyrosine-phosphorylation-regulated kinase 1B (Homo sapiens) (UniProt Q9Y463); assay: Inhibition of human recombinant GST-fused DYRK1B expressed in Escherichia coli at 0.003 to 10 uM using RS peptide as substrate after 30 mins in presence of [gamma-33P]ATP by scintillation counting method
# [2] = molecular target: T1, Dual specificity tyrosine-phosphorylation-regulated kinase 3 (Homo sapiens) (UniProt O43781); assay: Inhibition of human recombinant GST-fused DYRK3 expressed in Escherichia coli at 0.003 to 10 uM using RS peptide as substrate after 30 mins in presence of [gamma-33P]ATP by scintillation counting method
# T1 sequence (whole entry): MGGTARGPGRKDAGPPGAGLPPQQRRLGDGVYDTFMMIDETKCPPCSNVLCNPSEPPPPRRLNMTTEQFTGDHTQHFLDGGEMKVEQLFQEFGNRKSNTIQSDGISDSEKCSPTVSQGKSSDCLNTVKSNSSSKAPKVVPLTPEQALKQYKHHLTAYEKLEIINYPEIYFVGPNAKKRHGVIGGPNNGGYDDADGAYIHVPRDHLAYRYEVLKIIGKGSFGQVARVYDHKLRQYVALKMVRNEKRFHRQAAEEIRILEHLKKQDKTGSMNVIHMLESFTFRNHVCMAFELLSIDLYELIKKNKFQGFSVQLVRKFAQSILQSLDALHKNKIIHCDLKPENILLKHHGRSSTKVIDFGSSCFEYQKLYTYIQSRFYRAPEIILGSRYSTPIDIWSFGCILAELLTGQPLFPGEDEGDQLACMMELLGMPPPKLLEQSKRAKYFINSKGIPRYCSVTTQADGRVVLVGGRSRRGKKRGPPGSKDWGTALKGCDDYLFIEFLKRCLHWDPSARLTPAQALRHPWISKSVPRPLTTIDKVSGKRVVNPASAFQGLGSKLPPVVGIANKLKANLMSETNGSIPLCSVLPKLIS
# [3] = molecular target: Dual specificity protein kinase CLK2 (Mus musculus) (UniProt O35491); assay: Inhibition of mouse recombinant GST-fused CLK2 expressed in Escherichia coli at 0.003 to 10 uM using RS peptide as substrate after 30 mins in presence of [gamma-33P]ATP by scintillation counting method
# Sequence of Dual specificity protein kinase CLK2 (Mus musculus) (O35491 whole entry, looked up, the tested form may be a part): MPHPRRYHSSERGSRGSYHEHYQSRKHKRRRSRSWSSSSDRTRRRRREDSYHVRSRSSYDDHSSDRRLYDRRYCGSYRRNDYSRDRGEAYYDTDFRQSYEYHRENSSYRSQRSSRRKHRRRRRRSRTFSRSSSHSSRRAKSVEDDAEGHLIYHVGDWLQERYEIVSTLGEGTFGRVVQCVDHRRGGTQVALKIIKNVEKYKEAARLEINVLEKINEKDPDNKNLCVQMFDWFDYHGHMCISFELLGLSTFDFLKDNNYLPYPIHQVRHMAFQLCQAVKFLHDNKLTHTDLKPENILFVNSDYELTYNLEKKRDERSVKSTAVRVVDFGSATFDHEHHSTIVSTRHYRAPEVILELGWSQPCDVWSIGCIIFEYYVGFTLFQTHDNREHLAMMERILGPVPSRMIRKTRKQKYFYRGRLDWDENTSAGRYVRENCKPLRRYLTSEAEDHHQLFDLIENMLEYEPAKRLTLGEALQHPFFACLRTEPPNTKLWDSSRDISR
# [4] = molecular target: CDK2/Cyclin A2 (Homo sapiens) (UniProt P24941+P20248); assay: Inhibition of CDK2/cyclin A (unknown origin) at 0.003 to 10 uM after 30 mins in presence of [gamma-33P]ATP by scintillation counting method; format: protein-complex assay
# Leishmania major = assay: Inhibition of Leishmania major recombinant CK1 expressed in Escherichia coli at 0.003 to 10 uM using CKS peptide as substrate after 30 mins in presence of [gamma-33P]ATP by scintillation counting method
# [5] = Inhibition of porcine brain CK1delta/epsilon using CKS peptide as substrate after 30 mins in presence of [gamma-33P]ATP by scintillation counting method; design: species or system Sus scrofa
# [6] = molecular target: Dual specificity protein kinase CLK3 (Mus musculus) (UniProt O35492); assay: Inhibition of mouse recombinant GST-fused CLK3 expressed in Escherichia coli at 0.003 to 10 uM using RS peptide as substrate after 30 mins in presence of [gamma-33P]ATP by scintillation counting method
# Sequence of Dual specificity protein kinase CLK3 (Mus musculus) (O35492 whole entry, the tested form may be a part): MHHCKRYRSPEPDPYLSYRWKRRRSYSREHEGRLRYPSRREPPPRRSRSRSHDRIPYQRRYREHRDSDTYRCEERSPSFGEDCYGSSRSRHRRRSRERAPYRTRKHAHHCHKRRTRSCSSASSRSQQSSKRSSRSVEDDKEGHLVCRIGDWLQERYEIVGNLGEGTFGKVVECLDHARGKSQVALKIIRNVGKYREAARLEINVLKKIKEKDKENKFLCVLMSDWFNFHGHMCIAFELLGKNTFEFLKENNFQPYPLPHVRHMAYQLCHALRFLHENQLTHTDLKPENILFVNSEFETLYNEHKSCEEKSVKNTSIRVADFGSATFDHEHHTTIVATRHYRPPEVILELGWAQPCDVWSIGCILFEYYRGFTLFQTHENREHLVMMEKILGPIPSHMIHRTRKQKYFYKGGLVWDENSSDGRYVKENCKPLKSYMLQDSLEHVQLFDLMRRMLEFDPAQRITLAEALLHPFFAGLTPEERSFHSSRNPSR
# [7] = molecular target: Dual specificity protein kinase CLK4 (Mus musculus) (UniProt O35493); assay: Inhibition of mouse recombinant GST-fused CLK4 expressed in Escherichia coli at 0.003 to 10 uM using RS peptide as substrate after 30 mins in presence of [gamma-33P]ATP by scintillation counting method
# Sequence of Dual specificity protein kinase CLK4 (Mus musculus) (O35493 whole entry, looked up, the tested form may be a part): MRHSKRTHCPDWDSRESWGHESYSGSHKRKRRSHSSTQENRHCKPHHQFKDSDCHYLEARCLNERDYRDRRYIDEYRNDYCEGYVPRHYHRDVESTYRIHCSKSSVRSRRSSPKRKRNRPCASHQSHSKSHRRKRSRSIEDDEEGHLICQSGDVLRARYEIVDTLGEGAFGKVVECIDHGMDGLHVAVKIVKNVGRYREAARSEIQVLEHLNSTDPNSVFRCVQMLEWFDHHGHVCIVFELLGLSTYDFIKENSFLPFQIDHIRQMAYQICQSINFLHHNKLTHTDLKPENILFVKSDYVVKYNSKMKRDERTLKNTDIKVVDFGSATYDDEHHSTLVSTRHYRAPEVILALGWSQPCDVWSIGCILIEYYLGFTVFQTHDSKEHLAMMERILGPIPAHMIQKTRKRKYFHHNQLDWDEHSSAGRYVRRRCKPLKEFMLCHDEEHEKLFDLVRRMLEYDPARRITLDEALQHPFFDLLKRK
# [8] = molecular target: T2, Dual specificity tyrosine-phosphorylation-regulated kinase 2 (Homo sapiens) (UniProt Q92630); assay: Inhibition of human recombinant GST-fused DYRK2 expressed in Escherichia coli at 0.003 to 10 uM using RS peptide as substrate after 30 mins in presence of [gamma-33P]ATP by scintillation counting method
# T2 sequence (whole entry): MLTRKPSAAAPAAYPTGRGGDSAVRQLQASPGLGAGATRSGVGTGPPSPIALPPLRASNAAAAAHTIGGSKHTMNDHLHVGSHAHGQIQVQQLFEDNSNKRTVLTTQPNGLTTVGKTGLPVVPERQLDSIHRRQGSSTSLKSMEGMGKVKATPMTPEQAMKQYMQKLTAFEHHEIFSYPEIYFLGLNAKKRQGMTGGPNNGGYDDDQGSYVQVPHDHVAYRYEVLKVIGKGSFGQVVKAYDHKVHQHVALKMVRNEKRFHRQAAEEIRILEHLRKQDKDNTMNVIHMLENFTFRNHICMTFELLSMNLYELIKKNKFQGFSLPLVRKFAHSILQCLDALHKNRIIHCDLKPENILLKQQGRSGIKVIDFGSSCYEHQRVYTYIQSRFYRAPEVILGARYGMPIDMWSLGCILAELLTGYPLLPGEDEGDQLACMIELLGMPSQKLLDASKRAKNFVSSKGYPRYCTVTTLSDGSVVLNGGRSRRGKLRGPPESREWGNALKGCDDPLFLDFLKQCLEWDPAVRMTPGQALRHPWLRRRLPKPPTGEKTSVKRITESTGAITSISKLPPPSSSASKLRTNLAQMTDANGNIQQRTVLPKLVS
# [9] = molecular target: Dual specificity tyrosine-phosphorylation-regulated kinase 1A (Homo sapiens) (UniProt Q13627); assay: Inhibition of GST-fused DYRK1A (unknown origin) expressed in Escherichia coli at 0.003 to 10 uM using RS peptide as substrate after 30 mins in presence of [gamma-33P]ATP by scintillation counting method
# [10] = molecular target: Dual specificity protein kinase CLK1 (Mus musculus) (UniProt P22518); assay: Inhibition of mouse recombinant GST-fused CLK1 expressed in Escherichia coli at 0.003 to 10 uM using RS peptide as substrate after 30 mins in presence of [gamma-33P]ATP by scintillation counting method
# Sequence of Dual specificity protein kinase CLK1 (Mus musculus) (P22518 whole entry, looked up, the tested form may be a part): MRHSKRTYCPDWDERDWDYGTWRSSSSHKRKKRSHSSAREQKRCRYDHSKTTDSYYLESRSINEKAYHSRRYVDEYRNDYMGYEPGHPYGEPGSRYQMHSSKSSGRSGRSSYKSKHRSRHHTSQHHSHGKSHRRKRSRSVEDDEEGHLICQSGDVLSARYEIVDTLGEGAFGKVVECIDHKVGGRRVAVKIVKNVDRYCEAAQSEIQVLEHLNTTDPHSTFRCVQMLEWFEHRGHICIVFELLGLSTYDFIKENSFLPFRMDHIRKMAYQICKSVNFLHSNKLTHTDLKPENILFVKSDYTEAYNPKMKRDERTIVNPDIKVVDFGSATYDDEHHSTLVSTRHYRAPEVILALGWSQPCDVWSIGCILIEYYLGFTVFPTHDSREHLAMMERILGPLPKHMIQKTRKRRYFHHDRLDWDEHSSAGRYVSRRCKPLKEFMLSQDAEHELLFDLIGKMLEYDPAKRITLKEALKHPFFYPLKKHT
# Homo sapiens = species on record: Homo sapiens; assay: Inhibition of GSK3 (unknown origin) at 0.003 to 10 uM using GS-1 as substrate after 30 mins in presence of [gamma-33P]ATP by scintillation counting method
# Sus scrofa = species on record: Sus scrofa; assay: Inhibition of porcine brain CK1delta/epsilon at 0.003 to 10 uM using CKS peptide as substrate after 30 mins in presence of [gamma-33P]ATP by scintillation counting method
# [11] = molecular target: Cyclin-dependent kinase 5/CDK5 activator 1 (Homo sapiens) (UniProt Q00535+Q15078); assay: Inhibition of recombinant human CDK5/p25 expressed in Escherichia coli at 0.003 to 10 uM using histone H1 as substrate after 30 mins in presence of [gamma-33P]ATP by scintillation counting method
# Sequence of Cyclin-dependent kinase 5/CDK5 activator 1 (Homo sapiens) (Q00535 whole entry): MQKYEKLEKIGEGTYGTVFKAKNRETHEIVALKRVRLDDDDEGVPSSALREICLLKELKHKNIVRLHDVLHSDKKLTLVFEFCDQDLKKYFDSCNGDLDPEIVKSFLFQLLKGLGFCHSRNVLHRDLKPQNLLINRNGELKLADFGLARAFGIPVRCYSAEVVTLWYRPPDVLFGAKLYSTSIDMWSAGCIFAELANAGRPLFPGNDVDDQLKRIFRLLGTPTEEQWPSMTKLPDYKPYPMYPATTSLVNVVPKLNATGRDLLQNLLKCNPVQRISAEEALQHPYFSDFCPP
# Sequence of Cyclin-dependent kinase 5/CDK5 activator 1 (Homo sapiens) (Q15078 99-307 partner limits assumed): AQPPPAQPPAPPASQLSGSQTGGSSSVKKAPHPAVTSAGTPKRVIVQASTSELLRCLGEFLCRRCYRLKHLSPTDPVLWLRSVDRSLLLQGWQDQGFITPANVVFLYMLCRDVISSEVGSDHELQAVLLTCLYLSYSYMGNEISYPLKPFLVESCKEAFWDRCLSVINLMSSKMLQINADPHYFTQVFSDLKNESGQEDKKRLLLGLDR
# [12] = molecular target: CDK9/cyclin T1 (Homo sapiens) (UniProt O60563+P50750); assay: Inhibition of recombinant human CDK9/cyclin T expressed in insect cells at 0.003 to 10 uM using CDK7/9-Tide as substrate after 30 mins in presence of [gamma-33P]ATP by scintillation counting method
# Sequence of Dual specificity tyrosine-phosphorylation-regulated kinase 1B (Homo sapiens) (Q9Y463 whole entry, looked up, the tested form may be a part): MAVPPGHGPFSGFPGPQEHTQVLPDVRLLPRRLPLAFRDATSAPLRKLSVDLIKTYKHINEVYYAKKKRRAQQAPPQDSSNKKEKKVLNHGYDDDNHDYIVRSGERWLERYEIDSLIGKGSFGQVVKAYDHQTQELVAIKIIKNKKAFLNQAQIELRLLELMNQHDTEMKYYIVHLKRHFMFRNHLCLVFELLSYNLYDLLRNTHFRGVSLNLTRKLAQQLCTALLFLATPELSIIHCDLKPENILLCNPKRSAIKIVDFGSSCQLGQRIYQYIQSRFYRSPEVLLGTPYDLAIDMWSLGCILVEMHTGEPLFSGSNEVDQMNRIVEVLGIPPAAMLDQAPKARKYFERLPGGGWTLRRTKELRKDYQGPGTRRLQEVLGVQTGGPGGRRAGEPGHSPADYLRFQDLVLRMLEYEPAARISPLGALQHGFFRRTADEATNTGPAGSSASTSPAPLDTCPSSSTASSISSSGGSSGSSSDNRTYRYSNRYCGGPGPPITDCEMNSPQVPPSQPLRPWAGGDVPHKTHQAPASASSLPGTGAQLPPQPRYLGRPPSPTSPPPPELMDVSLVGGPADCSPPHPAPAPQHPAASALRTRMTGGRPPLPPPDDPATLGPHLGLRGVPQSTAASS
Structure (SMILES),inhibition [1],inhibition [2],inhibition [3],inhibition [4],inhibition (Leishmania major),IC50 [5] [µM],inhibition [6],inhibition [7],inhibition [8],inhibition [9],inhibition [10],inhibition (Homo sapiens),inhibition (Sus scrofa),inhibition [11],inhibition [12]
ClC[N@@+]12CCCC/C=C\CC[C@@H]3C=C4CN(CCCC/C=C\CC[C@H](C1)[C@H]4CC2)C3,inactive,inactive,inactive,inactive,inactive,6,inactive,inactive,inactive,,,,,,
C1=C2CN3CCCC/C=C\CC[C@@H]4CN(CCCC/C=C\CC[C@H]1C3)CC[C@@H]24,,,,,,,,,,inactive,inactive,inactive,inactive,inactive,inactive
